Measured values published in patent US9173935B2, “Phospholipid drug analogs” (Telormedix SA, priority 2010, dated 2015).
Like-named read-outs stand apart in the source and are kept apart here.

Experiments:
[1] = Plasma stability, second experiment, human plasma; conditions: human, plasma
Protocol: Second experiment: Test compounds (5 mM in DMSO) were diluted at the final concentration of 250 μM with ACN-MeOH 1:1.
Human plasma (1.180 ml) was spiked with 20 μl of 250 μM solution of the compound (4.16 μM final concentration) and aliquots of 50 μl volume were taken at 0, 15, 30, 60, 120 min and 5 hrs, and immediately quenched with 200 μl of a solution of Verapamil 250 ng/ml (internal standard, I.S.) in ACN:MeOH 95:5. Samples were then centrifuged for 20 min at 3000 rpm at 10° C. and analyzed as reported below. […] The supernatant fractions were analyzed by LC/MS/MS. Zero-time incubations were used as 100% values.
Stability was calculated as percentage remaining of the area ratio compound/I.S. at each time point vs. area ratio compound/I.S. at time 0 min.

[2] = Solubility, method of European Pharmacopoeia 6.0; assay type: physicochemical
Protocol: The method reported in the European Pharmacopoeia 6.0 was used.
Batch CH730/16/8g was tested according to the method described in E. Ph: DMSO was added in 0.1 mL portions to 103.7 mg of product and the suspension was shaken with a Vortex instrument for 3 min after each addition. […] The batches CH730/16/8c, CH730/16/8g and CH730/23/8e were then tested stirring each suspension for a longer time; 100 mg of each batch dissolved completely in 0.2 mL of DMSO after stirring for 30 minutes.

[3] = Storage stability by HPLC (solid or chloroform solution; temperature, light); assay type: physicochemical; conditions: room temperature, natural light
Protocol: At this point, a stability study was conducted on batch CH730/16/8g.
The samples were analyzed at t=0 and after 20 days.

[4] = test system: PBMCs; test: IL-6 and TNF-alpha secretion in PBMCs from three donors (ELISA); assay type: cell-based, human; conditions: read-out: EC50 values, IL-6 secretion
Protocol: EC50 values were determined for control and each drug candidate for IL-6 and TNF-alpha secretion. […] The cells were treated with TLR7 agonists for 24 hours in 7 doses. The conditioned media was removed for ELISA analyses for IL-6 and TNF-alpha, and cell survival determined by the XTT method according to the protocol from the supplier. […] Concentrations of IL-6 and TNF-alpha were determined by ELISA from R&D Systems using the Microsoft Excel Software. The results were analyzed in Graph Pad Prism in order to prepare dose-response curves, and for determination of EC50 values.

[5] = test system: human PBMCs; test: IL-6 secretion in human PBMCs, two batches of Compound A and SC12; assay type: cell-based; conditions: 24 h, 4 doses
Protocol: PBMCs were purified from two donors and plated into 96 well plates at 2×10^5 cells/well in RPMI media including human 2% heat inactivated AB serum, glutamine, Pen-strep and R-mercapto-ethanol. The cells were treated with TLR7 agonists for 24 h in 4 doses. The conditioned media was removed for ELISA analyses for IL-6, and the EC50 value determined for each compound and each batch.
All compounds were tested in four concentrations (10-1-0.1-0.01 micromolar).
Concentrations of IL-6 were determined by ELISA from R&D Systems using the Microsoft Excel software. The results were analyzed in Graph Pad Prism in order to prepare dose-response curves, and for determination of EC50 values.

[6] = Plasma stability, first experiment, rat plasma; assay type: in vitro ADME
Protocol: (§1) A 10 μl of MeOH was added to improve solubility. […] The supernatant fractions were analyzed by LC/MS/MS. […] Percent loss of substrate in incubations was determined to estimate the in vitro half life of the test compound.

[7] = Plasma stability and metabolic profiling, first experiment, rabbit plasma; assay type: in vitro ADME
Protocol: as §1, with “compound. […] Assignment of the structures was done by comparison of the MS/MS analysis of the spectra with the parent spectrum.” for “compound.”

[8] = Plasma stability, first experiment, minipig plasma; assay type: in vitro ADME
Protocol: as §1

[9] = Plasma stability and metabolic profiling, first experiment, human plasma; assay type: in vitro ADME
Protocol: as §1, with “compound. […] Assignment of the structures was done by comparison of the MS/MS analysis of the spectra with the parent spectrum.” for “compound.”

[10] = test system: recombinant protein antigens from Plasmodium falciparum and Mycobacterium ulcerans; test: Pilot immunization study with adjuvanted protein antigens; assay type: in vivo, mice; conditions: three s.c. immunizations, 10 nMol adjuvant
Protocol: A pilot immunization study was conducted using Compound A and SC12 adjuvanted protein antigens. The immunization experiments were performed with two recombinant proteins expressed in E. coli. One antigen was derived from the malaria parasite Plasmodium falciparum and the other one from Mycobacterium ulcerans, which cause the ulcerative skin disease Buruli ulcer.

[11] = test system: RAW.264 cells; test: Intracellular uptake in RAW.264 cells (LC-MS); assay type: cell-based; conditions: 10 microM
Protocol: 5×10^6 RAW.264 cells were adhered overnight in 10 cm tissue culture dishes. […] […] Supernatant (2 ml) and cells (pellets) were collected by trypsinization and frozen at […] for subsequent analysis by LC-MS.

COc1cc(N)c(Cl)cc1C(=O)OCCN1CCCCC1 [Compound M7319, 2-Piperidinoethyl 4-amino-5-chloro-2-methoxybenzoate, reference compound]
% Remaining ([1]; 0 h, 4.16 μM): 100%
% Remaining ([1]; 1 h, 4.16 μM): 23.3 ± 1.4%
% Remaining ([1]; 5 h, 4.16 μM): 0.01 ± 0.01%

CCCCCCCC/C=C\CCCCCCCC(=O)OCC(COP(=O)(O)OCCNC(=O)c1ccc(Cn2c(=O)[nH]c3c(N)nc(OCCOC)nc32)cc1)OC(=O)CCCCCCC/C=C\CCCCCCCC (stereo not shown) [Compound A, 2-(4-((6-amino-2-(2-methoxyethoxy)-8-oxo-7H-purin-9(8H)-yl)methyl)benzamido)ethyl 2,3-bis(oleoyloxy)propyl phosphate]
Solubility in DMSO [2]: soluble
Solubility in acetonitrile [2]: not soluble
Solubility in water [2]: not soluble
Purity (HPLC) ([3]; retest 12 Jun. 2009 (test 20 May 2009)): Purity: 67.2%
Purity (HPLC) ([3]; retest 16 Jun. 2009 (test 10 Jun. 2009)): Purity: 44.8%
Purity (HPLC) ([3]; retest 17 Jun. 2009 (test 20 May 2009)): Purity: 58.9%
Purity (HPLC) ([3]; retest 18 Jun. 2009 (test 11 Jun. 2009)): Purity: 71.5%
Purity (HPLC) ([3]; test date 10 Jun. 2009): Purity: 57.5%
Purity (HPLC) ([3]; test date 11 Jun. 2009): Purity: 81.4%
Purity (HPLC) ([3]; test date 20 May 2009): Purity: 89.6%
EC50 ([4]; D1, first experiments on three donors): 460 nM
EC50 ([4]; D2, first experiments on three donors): 740 nM
EC50 ([4]; D3, first experiments on three donors): 255 nM
EC50 ([5]; Donor 1, listed as Compound A new 20289): 721 nM
EC50 ([5]; Donor 1, listed as Compound A old Ch730/25/8): 734 nM
EC50 ([5]; Donor 2, listed as Compound A new 20289): 521 nM
EC50 ([5]; Donor 2, listed as Compound A old Ch730/25/8): 392 nM
Plasma stability classification [6]: unstable
% Remaining ([6]; 0 min): 100%
% Remaining ([6]; 15 min): 73.8 ± 4.5%
% Remaining ([6]; 30 min): 67.1 ± 8.8%
% Remaining ([6]; 60 min): 25.2 ± 0.5%
% Remaining ([6]; 120 min): 21.4 ± 1.9%
% Remaining ([6]; 300 min): 15.3 ± 1.0%
Plasma stability classification [7]: unstable
% Remaining ([7]; 0 min): 100%
Metabolites found ([7]; 30 and 120 min, 50 μM): Three metabolites
% Remaining ([7]; 15 min): 38.7 ± 3.4%
% Remaining ([7]; 30 min): 10.2 ± 1.0%
% Remaining ([7]; 60 min): 7.4 ± 0.1%
% Remaining ([7]; 120 min): 4.4 ± 0.7%
% Remaining ([7]; 300 min): 1.9 ± 0.1%
Plasma stability classification [8]: unstable
% Remaining ([8]; 0 min): 100%
% Remaining ([8]; 15 min): 102.4 ± 3.3%
% Remaining ([8]; 30 min): 73.3 ± 5.0%
% Remaining ([8]; 60 min): 78.6 ± 2.9%
% Remaining ([8]; 120 min): 33.7 ± 2.3%
% Remaining ([8]; 300 min): 10.8 ± 0.3%
Metabolites found ([9]; 60 and 300 min, 50 μM): two of them
Plasma stability classification ([9]; first experiment): unstable
% Remaining ([9]; first experiment, 0 min): 100%
% Remaining ([9]; first experiment, 15 min): 99.7 (*) %
% Remaining ([9]; first experiment, 30 min): 40.4 ± 15.5%
% Remaining ([9]; first experiment, 60 min): 36.1 ± 7.6%
% Remaining ([9]; first experiment, 120 min): 17.4 ± 2.6%
% Remaining ([9]; first experiment, 300 min): 7.8 ± 3.3%
% Remaining ([1]; 0 h): 100%
% Remaining ([1]; 0.25 h): 100.6 ± 14.5%
% Remaining ([1]; 0.5 h): 90.3 ± 13.3%
% Remaining ([1]; 2 h): 69.8 ± 16.8%
Local side effects (swelling, ulcerations) [10]: No local side effects
Intracellular Concentration ([11]; incubation 1 hours): 5.50 % of total
Intracellular Concentration ([11]; incubation 6 hours): 4.27 % of total
Intracellular Concentration ([11]; incubation 16 hours): 1.53 % of total
